Measured values: patent publication US10640534B2 (Agios Pharmaceuticals, Inc., priority 2012, dated 2020)

Each molecule was assayed on U87MG cells (assay: Cellular assay, inhibition of 2-HG production in U87MG cells). Details: Homo sapiens, U-87 MG, 48 h.
Format: cell-based
Method: Cells (HT1080 or U87MG) are grown in T125 flasks in DMEM containing 10% FBS, 1× penicillin/streptomycin and 500 ug/mL G418 (present in U87MG cells only). They are harvested by trypsin and seeded into 96 well white bottom plates at a density of 5000 cell/well in 100 ul/well in DMEM with 10% FBS. […] Cells are incubated overnight at 37° C. in 5% CO2. The next day test compounds are made up at 2× the final concentration and 100 ul are added to each cell well. The final concentration of DMSO is 0.2% and the DMSO control wells are plated in row G. The plates are then placed in the incubator for 48 hours. […] The cell plate is placed back in the incubator for another 24 hours. At 72 hours post compound addition, 10 mL/plate of Promega Cell Titer Glo reagent is thawed and mixed. The cell plate is removed from the incubator and allowed to equilibrate to room temperature. Then 100 ul of Promega Cell Titer Glo reagent is added to each well of media. The cell plate is then placed on an orbital shaker for 10 minutes and then allowed to sit at room temperature for 20 minutes. The plate is then read for luminescence with an integration time of 500 ms.

IC50 [nM]	Structure (SMILES)
< 100	N#Cc1ccnc(N2C(=O)OCC[C@H]2C(=O)N(c2cncc(F)c2)[C@H](C(=O)NC2CCC(F)(F)CC2)c2ccccc2Cl)c1 [Compound 137, (S)—N—((S)-1-(2-Chlorophenyl)-2-((4,4-difluorocyclohexyl)amino)-2-oxoethyl)-3-(4-cyano-pyridin-2-yl)-N-(5-fluoropyridin-3-yl)-2-oxo-1,3-oxazinane-4-carboxamide]
< 100	N#Cc1ccnc(N2C(=O)CC[C@H]2C(=O)N(c2cc(F)cc(F)c2)[C@H](C(=O)NC2CCC(F)(F)CC2)c2ccccc2Cl)c1 [Compound 81, (2S)—N-(1-(2-Chlorophenyl)-2-(4,4-difluorocyclohexylamino)-2-oxoethyl)-1-(4-cyanopyridin-2-yl)-N-(3,5-difluorophenyl)-5-oxopyrrolidine-2-carboxamide]
100 to 500	N#Cc1ccnc(N2C(=O)[C@H](O)C[C@H]2C(=O)N(c2cc(F)cc(F)c2)[C@@H](C(=O)NC2CCC(F)(F)CC2)c2ccccc2Cl)n1 [Compound 126, (2S,4R)—N—((R)-1-(2-Chlorophenyl)-2-(4,4-difluorocyclohexylamino)-2-oxoethyl)-1-(4-cyanopyrimidin-2-yl)-N-(3,5-difluorophenyl)-4-hydroxy-5-oxopyrrolidine-2-carboxamide]
< 100	N#Cc1ccnc(N2C(=O)CC[C@H]2C(=O)N(c2cncc(F)c2)[C@H](C(=O)NC2CC(F)(F)C2)c2ccccc2Cl)c1 [Compound 176, (S)—N—((S)-1-(2-Chlorophenyl)-2-(3,3-difluorocyclobutylamino)-2-oxoethyl)-1-(4-cyanopyridin-2-yl)-N-(5-fluoropyridin-3-yl)-5-oxopyrrolidine-2-carboxamide]
< 100	N#Cc1ccnc(N2C(=O)CC[C@H]2C(=O)N(c2ccc3[nH]ncc3c2)[C@H](C(=O)NC2CC(F)(F)C2)c2ccccc2Cl)c1 [Compound 175, (S)—N—((S)-1-(2-Chlorophenyl)-2-((3,3-difluorocyclobutyl)amino)-2-oxoethyl)-1-(4-cyanopyridin-2-yl)-N-(1H-indazol-5-yl)-5-oxopyrrolidine-2-carboxamide]
< 100	N#Cc1cnc(N2C(=O)CC[C@H]2C(=O)N(c2cc(F)cc(F)c2)[C@H](C(=O)NC2CC(F)(F)C2)c2ccccc2Cl)o1 [Compound 162, (S)—N—((S)-1-(2-chlorophenyl)-2-((3,3-difluorocyclobutyl)amino)-2-oxoethyl)-1-(5-cyanooxazol-2-yl)-N-(3,5-difluorophenyl)-5-oxopyrrolidine-2-carboxamide]
< 100	N#Cc1ccnc(N2C(=O)CC[C@H]2C(=O)N(c2cc(F)cc(F)c2)[C@H](C(=O)NC2CC(F)(F)C2)c2ccccc2Cl)c1F [Compound 88, (S)—N—((S)-1-(2-Chlorophenyl)-2-((3,3-difluorocyclobutyl)amino)-2-oxoethyl)-1-(4-cyano-3-fluoropyridin-2-yl)-N-(3,5-difluorophenyl)-5-oxopyrrolidine-2-carboxamide]
< 100	N#Cc1ccnc(N2C(=O)CC[C@H]2C(=O)N(c2cncc(F)c2)C(C(=O)NC2CC(F)(F)C2)c2ccccc2Cl)c1 (stereo partly shown) [Compound 91]
< 100	N#Cc1ccnc(N2C(=O)[C@H](O)C[C@H]2C(=O)N(c2cccc(F)c2)[C@H](C(=O)NC2CCC(F)(F)CC2)c2ccccc2Cl)n1 [Compound 123, (2S,4R)—N—((S)-1-(2-Chlorophenyl)-2-((4,4-difluorocyclohexyl)amino)-2-oxoethyl)-1-(4-cyanopyrimidin-2-yl)-N-(3-fluorophenyl)-4-hydroxy-5-oxopyrrolidine-2-carboxamide]
< 100	CS(=O)(=O)c1cc(F)cc(N(C(=O)[C@@H]2CCC(=O)N2c2nccc(C#N)n2)C(C(=O)NC2CCC(F)(F)CC2)c2ccccc2Cl)c1 (stereo partly drawn) [Compound 108, (2S)—N-(1-(2-Chlorophenyl)-2-((4,4-difluorocyclohexyl)amino)-2-oxoethyl)-1-(4-cyanopyrimidin-2-yl)-N-(3-fluoro-5-(methylsulfonyl)phenyl)-5-oxopyrrolidine-2-carboxamide]
